Experimental data taken from ChEMBL document CHEMBL1127910, “Structural basis for the differential RXR & RAR activity of stilbene retinoid analogs” (Bioorg Med Chem Lett, 1994).

Experiments:
[1] = molecular target: T1, Retinoic acid receptor gamma (Homo sapiens, UniProt P13631); test: Transcriptional activation for RAR gamma receptor
T1 sequence (P13631 whole entry): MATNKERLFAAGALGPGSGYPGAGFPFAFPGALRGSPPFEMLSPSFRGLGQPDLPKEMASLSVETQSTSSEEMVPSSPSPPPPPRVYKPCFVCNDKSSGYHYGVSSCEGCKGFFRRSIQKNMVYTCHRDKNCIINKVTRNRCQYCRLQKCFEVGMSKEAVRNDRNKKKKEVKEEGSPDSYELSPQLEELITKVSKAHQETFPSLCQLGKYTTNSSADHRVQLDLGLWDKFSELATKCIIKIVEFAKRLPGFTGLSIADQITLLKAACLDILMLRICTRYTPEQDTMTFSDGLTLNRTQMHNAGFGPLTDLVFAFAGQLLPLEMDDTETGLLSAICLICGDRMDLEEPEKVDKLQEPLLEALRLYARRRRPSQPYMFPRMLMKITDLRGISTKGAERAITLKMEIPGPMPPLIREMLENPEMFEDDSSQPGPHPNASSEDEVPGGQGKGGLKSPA

[2] = molecular target: T2, Retinoic acid receptor beta (Homo sapiens, UniProt P10826); test: Transcriptional activation for RAR beta receptor
T2 sequence (P10826 whole entry): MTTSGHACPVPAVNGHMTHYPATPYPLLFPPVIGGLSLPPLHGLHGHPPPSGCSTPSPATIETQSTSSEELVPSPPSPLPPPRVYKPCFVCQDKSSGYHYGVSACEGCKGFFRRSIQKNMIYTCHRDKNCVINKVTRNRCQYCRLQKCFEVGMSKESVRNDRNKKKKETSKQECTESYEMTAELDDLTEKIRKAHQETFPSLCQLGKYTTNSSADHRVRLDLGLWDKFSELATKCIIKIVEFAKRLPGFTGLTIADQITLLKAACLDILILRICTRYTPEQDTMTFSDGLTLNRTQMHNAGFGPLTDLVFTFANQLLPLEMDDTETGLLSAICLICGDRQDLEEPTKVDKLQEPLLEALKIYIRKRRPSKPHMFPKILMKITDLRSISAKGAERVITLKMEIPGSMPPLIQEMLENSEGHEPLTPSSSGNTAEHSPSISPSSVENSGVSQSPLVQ

[3] = molecular target: T3, Retinoic acid receptor RXR-alpha (Homo sapiens, UniProt P19793)
T3 sequence (P19793 whole entry): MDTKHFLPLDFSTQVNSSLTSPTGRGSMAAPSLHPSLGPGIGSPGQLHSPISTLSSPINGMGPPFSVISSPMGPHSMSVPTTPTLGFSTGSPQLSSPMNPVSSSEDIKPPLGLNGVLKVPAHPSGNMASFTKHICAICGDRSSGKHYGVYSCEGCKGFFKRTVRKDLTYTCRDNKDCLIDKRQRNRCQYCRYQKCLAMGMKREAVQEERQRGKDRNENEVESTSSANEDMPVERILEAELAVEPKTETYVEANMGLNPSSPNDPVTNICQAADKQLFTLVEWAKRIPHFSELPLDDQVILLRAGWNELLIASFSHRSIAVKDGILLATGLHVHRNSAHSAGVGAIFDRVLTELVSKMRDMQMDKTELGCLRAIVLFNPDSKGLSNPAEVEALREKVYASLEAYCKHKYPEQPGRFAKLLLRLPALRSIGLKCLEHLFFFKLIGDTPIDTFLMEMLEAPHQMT

[4] = molecular target: T4, Retinoic acid receptor alpha (Homo sapiens, UniProt P10276); test: Transcriptional activation for RAR alpha receptor
T4 sequence (P10276 whole entry): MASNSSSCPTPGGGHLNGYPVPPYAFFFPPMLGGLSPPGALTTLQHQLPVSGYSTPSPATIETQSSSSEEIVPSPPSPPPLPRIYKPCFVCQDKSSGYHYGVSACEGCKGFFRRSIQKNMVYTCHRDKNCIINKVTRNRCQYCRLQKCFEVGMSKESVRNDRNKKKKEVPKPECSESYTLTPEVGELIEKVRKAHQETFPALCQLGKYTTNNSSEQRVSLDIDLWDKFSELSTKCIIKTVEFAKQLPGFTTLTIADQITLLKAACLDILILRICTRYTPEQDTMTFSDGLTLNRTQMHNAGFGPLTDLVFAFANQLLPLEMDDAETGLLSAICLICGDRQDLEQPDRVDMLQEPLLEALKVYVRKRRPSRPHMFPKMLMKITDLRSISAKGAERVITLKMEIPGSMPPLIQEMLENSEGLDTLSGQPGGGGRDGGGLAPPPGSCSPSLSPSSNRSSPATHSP

[5] = molecular target: T3, Retinoic acid receptor RXR-alpha; test: Transcriptional activation for RXR alpha receptor
[6] = molecular target: T4, Retinoic acid receptor alpha; test: Transcriptional activation for RAR alpha receptor; not active (EC50>10e4 nM)
[7] = molecular target: T1, Retinoic acid receptor gamma; test: Transcriptional activation for RAR gamma receptor; not active (EC50>10e4 nM)
[8] = molecular target: T2, Retinoic acid receptor beta; test: Transcriptional activation for RAR beta receptor; not active (EC50>10e4 nM)

EC50 [1] [µM]	EC50 [2] [µM]	EC50 [3]	EC50 [4] [µM]	EC50 [5] [µM]	EC50 [6]	EC50 [7]	EC50 [8]	SMILES
0.0004	0.0005	Not Active	0.024	–	–	–	–	C/C(=C\c1ccc2c(c1)C(C)(C)CCC2(C)C)c1ccc(C(=O)O)cc1
–	–	Not Active	–	–	–	–	–	C/C(=C\c1ccc(C(=O)O)cc1)c1ccc2c(c1)C(C)(C)CCC2(C)C
0.091	0.021	–	0.989	0.298	–	–	–	C/C(=C\c1ccc(C(=O)O)cc1)c1cc2c(cc1Br)C(C)(C)CCC2(C)C
0.0014	0.0004	Not Active	0.015	–	–	–	–	Cc1cc2c(cc1/C=C/c1ccc(C(=O)O)cc1)C(C)(C)CCC2(C)C
0.077	0.021	–	> 1	0.275	–	–	–	C/C(=C\c1ccc(C(=O)O)cc1)c1cc2c(cc1Cl)C(C)(C)CCC2(C)C
0.0004	0.0004	Not Active	0.011	–	–	–	–	CC1(C)CCC(C)(C)c2cc(/C=C/c3ccc(C(=O)O)cc3)ccc21
0.195	0.961	–	–	2.22	Not Active	–	–	CCc1cc2c(cc1/C(C)=C/c1ccc(C(=O)O)cc1)C(C)(C)CCC2(C)C
0.152	0.074	–	4.58	0.385	–	–	–	C/C(=C\c1ccc(C(=O)O)cc1)c1cc2c(cc1C)C(C)(C)CCC2(C)C
–	–	–	–	> 6.4	Not Active	Not Active	Not Active	CC(=Cc1ccc(C(=O)O)cc1)c1cc2c(cc1C)C(C)(C)CCC2(C)C
